The record followed here is patent US20240101576A1, “HETEROCYCLIC INHIBITORS OF EGFR AND/OR HER2, FOR USE IN THE TREATMENT OF CANCER” (Scorpion Therapeutics, Inc., priority 2020, published 2024).

Common to all, as to assay type: cell-based
For one assay, the target named is T1, EGFR WT (Ba/F3 cells) (Homo sapiens, UniProt P00533).
T1 construct: expressed in transfected cells; host or cells: Ba/F3 (murine pro-B cells), retroviral transduction, puromycin selection, maintained with EGF
The experiment in a line: Inhibitor activity on EGFR-dependent cell growth (CellTiter-Glo, 72 h), Ba/F3 EGFR WT. Particulars: read-out: BaF3 WT IC50. Summed up:
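This growth assay used Ba/F3 cells that depend on wild-type EGFR and are kept in EGF without IL3. Compounds were made up as 10 mM DMSO stocks and diluted 3-fold over 10 points. 120 nL went onto 600 cells/well. After 72 hours, 40 μL CellTiter-Glo was added and luminescence read on EnVision after 30 min.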

For assay [1], the target named is T2, EGFR exon 20 NPG Ins D770_N771 (Ba/F3 cells) (Homo sapiens, UniProt P00533, INS770NPG).
T2 construct: expressed in transfected cells; host or cells: Ba/F3 (murine pro-B cells), retroviral transduction, puromycin selection, IL3-independent pool
As to the kind of experiment: Inhibitor activity on EGFR-dependent cell growth (CellTiter-Glo, 72 h), Ba/F3 EGFR exon 20 NPG Ins. Particulars: read-out: BaF3 NPG IC50. Summed up: (§1)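 IC50s derive from a sigmoidal dose–response fit of CellTiter-Glo signal. The signal was normalised between […]-treated cells and cell-free medium. Ba/F3 mutant-EGFR cells, seeded at 400–800/well depending on the line, had 72 h of exposure to a 10-point, 3-fold compound series.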

The target of assay [2] is T3, EGFR exon 20 ASV Ins V769_D770 (Ba/F3 cells) (Homo sapiens, UniProt P00533, INS769ASV).
T3 construct: expressed in transfected cells; host or cells: Ba/F3 (murine pro-B cells), retroviral transduction, puromycin selection, IL3-independent pool
As to the kind of experiment: Inhibitor activity on EGFR-dependent cell growth (CellTiter-Glo, 72 h), Ba/F3 EGFR exon 20 ASV Ins. Particulars: read-out: BaF3 ASV IC50. Summed up:
as §1

Assay [3] deals with T4, EGFR exon 20 SVD Ins D770_N771 (Ba/F3 cells) (Homo sapiens, UniProt P00533, INS770SVD).
T4 construct: expressed in transfected cells; host or cells: Ba/F3 (murine pro-B cells), retroviral transduction, puromycin selection, IL3-independent pool
As to the kind of experiment: Inhibitor activity on EGFR-dependent cell growth (CellTiter-Glo, 72 h), Ba/F3 EGFR exon 20 SVD Ins. Particulars: read-out: BaF3 SVD IC50. Summed up:
as §1

Assay [4] addresses T5, EGFR exon 20 FQEA Ins A763_V764 (Ba/F3 cells) (Homo sapiens, UniProt P00533, INS763FQEA).
T5 construct: expressed in transfected cells; host or cells: Ba/F3 (murine pro-B cells), retroviral transduction, puromycin selection, IL3-independent pool
As to the kind of experiment: Inhibitor activity on EGFR-dependent cell growth (CellTiter-Glo, 72 h), Ba/F3 EGFR exon 20 FQEA Ins. Particulars: read-out: BaF3 FQEA IC50. Summed up: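 Cell viability was measured by CellTiter-Glo after a three-day treatment. The IL3-free Ba/F3 lines carried L858R, L858R/C797S, exon 19 deletion or FQEA insertion EGFR and were seeded at 400, 600, 800 and 800 cells/well respectively.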

The target of assay [5] is T2, EGFR exon 20 NPG Ins D770_N771 (Ba/F3 cells). As to the kind of experiment: Inhibitor activity on EGFR phosphorylation (pEGFR AlphaLISA, 2 h), Ba/F3 EGFR exon 20 NPG Ins. An excerpt:
Example B. Inhibitor Activity on EGFR phosphorylation (pEGFR)
EGFR mutant Ba/F3 cells were generated by transduction with retrovirus containing vectors expressing EGFR L858R, EGFR exon 19del, EGFR L858R/C797S, EGFR exon 20 NPG Ins D770_N771, EGFR exon 20 ASV Ins V769_D770, or EGFR exon 20 SVD Ins D770_N771 genes along with a puromycin selection marker. Transduced cells are selected with puromycin for 7 days and are then be transferred into culture media without Interleukin 3 (IL3). Surviving cells are confirmed to express EGFR by Western blot and maintained as a pool. CUTO14 cells were obtained from Dr. Robert C. Doebele at the University of Colorado. The IC50 date are included in Table 6 and Table 7.
1.1 Cells are harvested from flask into cell culture medium and the cell number counted.
1.2 Cells are diluted with culture medium to the desired density and 40 μL of cell suspension is added into each well of 384-well cell culture plate and the seeding density is 50K cells/well (Ba/F3) or 12.5K cells/well (CUTO14).
2 Compound Preparation and Treatment
2.1 Test compounds are dissolved to 10 mM in a DMSO stock solution. 45 μL of stock solution is transferred to a 384 polypropylene plate (pp-plate). Perform 3-fold, 10-point dilution via transferring 15 μL compound into 30 μL DMSO using a TECAN (EVO200) liquid handler.
2.2 Spin plates at room temperature at 1,000 RPM for 1 minute.
2.3 Transfer 5 nL of diluted compound from compound source plate into the cell plate.
2.4 After compound treatment for 2 hours, perform pEGFR detection by AlphaLISA for compound treatment plates as described in “Detection” section.
3 Detection by pEGFR AlphaLISA (Perkin-Elmer)
3.1 Plates are removed from incubators and equilibrated at room temperature for 10 minutes, and media was removed
3.2 10 μL of lysis buffer is added and plates shaken at 600 rpm for 1 hr.
3.3 Prepare acceptor mix just before use and dispense 5 μL of acceptor mix to all the wells. Shake 350 rpm for Ihr in the dark
3.4 Prepare donor mix under low light conditions prior to use. Dispense 5 μL of donor mix to all the wells. Mix well on the shaker, seal and wrap in aluminum foil and incubate 1.5 hrs at room temperature in the dark
3.5 Transfer 18.5 μL mixture to OptiPlate 384, and read using an Envision. The IC50 date were included in Table 6 and Table 7.

Assay [6] addresses T3, EGFR exon 20 ASV Ins V769_D770 (Ba/F3 cells). As to the kind of experiment: Inhibitor activity on EGFR phosphorylation (pEGFR AlphaLISA, 2 h), Ba/F3 EGFR exon 20 ASV Ins. Particulars: EGFR phosphorylation, AlphaLISA, 2 hours; read-out: ASV IC50 (pEGFR). Summed up:
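Compound treated for 2 h in IL3-withdrawn Ba/F3 cells carrying mutant EGFR (50K/well) or CUTO14 (12.5K/well); lysate pEGFR by AlphaLISA gave the IC50.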

T5 sequence (P00533 with tags, fused parts or gaps INS763FQEA): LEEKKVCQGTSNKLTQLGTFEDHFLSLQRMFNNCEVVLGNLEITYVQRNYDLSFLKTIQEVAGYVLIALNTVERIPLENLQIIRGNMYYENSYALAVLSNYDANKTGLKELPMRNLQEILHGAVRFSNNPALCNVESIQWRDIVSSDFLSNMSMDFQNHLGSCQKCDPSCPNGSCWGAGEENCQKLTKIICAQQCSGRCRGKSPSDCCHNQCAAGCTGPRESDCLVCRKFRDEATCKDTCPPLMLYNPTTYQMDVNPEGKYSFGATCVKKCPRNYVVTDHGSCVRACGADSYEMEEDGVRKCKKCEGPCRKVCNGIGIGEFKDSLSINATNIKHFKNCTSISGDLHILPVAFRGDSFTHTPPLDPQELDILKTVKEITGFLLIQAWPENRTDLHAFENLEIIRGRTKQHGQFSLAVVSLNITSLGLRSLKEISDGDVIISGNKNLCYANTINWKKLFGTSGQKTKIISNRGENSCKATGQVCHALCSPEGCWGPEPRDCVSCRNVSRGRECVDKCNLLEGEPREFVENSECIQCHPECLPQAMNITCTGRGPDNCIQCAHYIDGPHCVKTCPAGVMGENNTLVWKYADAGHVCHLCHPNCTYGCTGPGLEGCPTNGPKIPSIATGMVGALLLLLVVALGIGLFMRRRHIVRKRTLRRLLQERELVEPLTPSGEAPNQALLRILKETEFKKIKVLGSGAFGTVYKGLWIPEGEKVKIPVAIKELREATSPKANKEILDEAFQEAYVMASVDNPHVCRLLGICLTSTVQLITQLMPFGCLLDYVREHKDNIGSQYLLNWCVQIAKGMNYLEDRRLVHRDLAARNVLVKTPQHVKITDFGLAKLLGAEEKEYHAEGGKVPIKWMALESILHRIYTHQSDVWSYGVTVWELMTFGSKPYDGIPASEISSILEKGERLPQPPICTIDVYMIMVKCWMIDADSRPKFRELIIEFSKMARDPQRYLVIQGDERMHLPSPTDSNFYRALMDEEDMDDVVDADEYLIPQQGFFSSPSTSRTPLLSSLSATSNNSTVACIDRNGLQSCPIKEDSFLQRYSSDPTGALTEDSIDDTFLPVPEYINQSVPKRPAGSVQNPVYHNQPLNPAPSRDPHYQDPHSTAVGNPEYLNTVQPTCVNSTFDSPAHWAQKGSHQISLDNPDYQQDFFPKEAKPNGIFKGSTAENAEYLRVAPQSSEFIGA
T2 sequence (P00533 with tags, fused parts or gaps INS770NPG): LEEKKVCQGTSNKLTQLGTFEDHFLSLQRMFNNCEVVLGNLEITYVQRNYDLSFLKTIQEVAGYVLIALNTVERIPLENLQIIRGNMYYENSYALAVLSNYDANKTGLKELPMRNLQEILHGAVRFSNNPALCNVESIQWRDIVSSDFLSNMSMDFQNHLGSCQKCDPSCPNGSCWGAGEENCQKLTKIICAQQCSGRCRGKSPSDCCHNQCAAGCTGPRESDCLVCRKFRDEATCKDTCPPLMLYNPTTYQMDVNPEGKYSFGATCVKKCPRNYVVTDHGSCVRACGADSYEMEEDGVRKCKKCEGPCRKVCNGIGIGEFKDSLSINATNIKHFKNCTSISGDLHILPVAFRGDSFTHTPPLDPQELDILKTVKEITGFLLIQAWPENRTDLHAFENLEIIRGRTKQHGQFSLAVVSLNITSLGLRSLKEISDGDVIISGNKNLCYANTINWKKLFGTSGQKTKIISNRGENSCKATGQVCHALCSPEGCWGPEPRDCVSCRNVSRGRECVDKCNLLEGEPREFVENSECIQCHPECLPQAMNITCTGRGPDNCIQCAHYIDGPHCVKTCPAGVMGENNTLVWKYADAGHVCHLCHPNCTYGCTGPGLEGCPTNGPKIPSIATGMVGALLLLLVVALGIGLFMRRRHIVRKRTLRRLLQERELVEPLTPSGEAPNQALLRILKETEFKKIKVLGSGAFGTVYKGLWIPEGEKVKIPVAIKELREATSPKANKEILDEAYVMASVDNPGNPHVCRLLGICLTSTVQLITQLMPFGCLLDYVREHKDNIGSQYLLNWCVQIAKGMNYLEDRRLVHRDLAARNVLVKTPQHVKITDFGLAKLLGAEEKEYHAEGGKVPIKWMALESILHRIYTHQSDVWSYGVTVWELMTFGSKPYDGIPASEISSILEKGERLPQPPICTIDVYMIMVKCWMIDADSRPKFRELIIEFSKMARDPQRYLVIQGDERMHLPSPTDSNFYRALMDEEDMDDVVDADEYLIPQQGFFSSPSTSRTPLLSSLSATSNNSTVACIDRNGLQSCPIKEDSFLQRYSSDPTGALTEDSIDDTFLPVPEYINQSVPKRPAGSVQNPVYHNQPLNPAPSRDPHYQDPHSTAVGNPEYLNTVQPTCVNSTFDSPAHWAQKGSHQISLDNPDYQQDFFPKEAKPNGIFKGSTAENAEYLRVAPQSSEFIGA
T4 sequence (P00533 with tags, fused parts or gaps INS770SVD): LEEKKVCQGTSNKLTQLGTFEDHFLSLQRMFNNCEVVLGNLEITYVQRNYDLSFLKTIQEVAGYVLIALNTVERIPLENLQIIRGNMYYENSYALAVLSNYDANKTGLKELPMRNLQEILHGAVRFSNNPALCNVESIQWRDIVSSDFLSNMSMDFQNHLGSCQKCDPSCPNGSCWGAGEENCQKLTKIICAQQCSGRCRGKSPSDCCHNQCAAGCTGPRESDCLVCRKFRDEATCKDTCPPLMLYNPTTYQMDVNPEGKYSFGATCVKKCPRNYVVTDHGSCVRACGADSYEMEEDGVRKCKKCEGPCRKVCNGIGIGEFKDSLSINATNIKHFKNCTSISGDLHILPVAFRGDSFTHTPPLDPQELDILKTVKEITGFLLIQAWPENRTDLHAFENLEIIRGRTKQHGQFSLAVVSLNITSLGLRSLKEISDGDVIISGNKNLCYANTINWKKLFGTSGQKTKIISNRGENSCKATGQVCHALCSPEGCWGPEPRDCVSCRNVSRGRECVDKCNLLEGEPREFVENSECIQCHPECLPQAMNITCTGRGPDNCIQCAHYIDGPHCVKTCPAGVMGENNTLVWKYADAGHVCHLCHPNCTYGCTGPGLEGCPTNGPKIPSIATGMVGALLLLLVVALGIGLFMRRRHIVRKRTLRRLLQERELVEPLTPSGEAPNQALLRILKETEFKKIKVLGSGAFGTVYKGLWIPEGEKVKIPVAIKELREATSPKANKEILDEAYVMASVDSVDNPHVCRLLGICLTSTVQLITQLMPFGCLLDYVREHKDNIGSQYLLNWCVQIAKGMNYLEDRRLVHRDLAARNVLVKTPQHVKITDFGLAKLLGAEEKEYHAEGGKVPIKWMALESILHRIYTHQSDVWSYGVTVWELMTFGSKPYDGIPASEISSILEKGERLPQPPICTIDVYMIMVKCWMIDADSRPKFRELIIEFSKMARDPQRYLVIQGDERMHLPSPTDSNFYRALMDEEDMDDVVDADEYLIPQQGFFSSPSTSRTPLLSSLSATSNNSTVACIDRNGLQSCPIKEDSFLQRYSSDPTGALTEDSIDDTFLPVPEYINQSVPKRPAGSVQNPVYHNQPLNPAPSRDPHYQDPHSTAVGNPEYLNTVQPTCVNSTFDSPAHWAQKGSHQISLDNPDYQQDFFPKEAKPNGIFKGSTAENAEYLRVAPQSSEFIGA
T1 sequence (P00533 25-1210): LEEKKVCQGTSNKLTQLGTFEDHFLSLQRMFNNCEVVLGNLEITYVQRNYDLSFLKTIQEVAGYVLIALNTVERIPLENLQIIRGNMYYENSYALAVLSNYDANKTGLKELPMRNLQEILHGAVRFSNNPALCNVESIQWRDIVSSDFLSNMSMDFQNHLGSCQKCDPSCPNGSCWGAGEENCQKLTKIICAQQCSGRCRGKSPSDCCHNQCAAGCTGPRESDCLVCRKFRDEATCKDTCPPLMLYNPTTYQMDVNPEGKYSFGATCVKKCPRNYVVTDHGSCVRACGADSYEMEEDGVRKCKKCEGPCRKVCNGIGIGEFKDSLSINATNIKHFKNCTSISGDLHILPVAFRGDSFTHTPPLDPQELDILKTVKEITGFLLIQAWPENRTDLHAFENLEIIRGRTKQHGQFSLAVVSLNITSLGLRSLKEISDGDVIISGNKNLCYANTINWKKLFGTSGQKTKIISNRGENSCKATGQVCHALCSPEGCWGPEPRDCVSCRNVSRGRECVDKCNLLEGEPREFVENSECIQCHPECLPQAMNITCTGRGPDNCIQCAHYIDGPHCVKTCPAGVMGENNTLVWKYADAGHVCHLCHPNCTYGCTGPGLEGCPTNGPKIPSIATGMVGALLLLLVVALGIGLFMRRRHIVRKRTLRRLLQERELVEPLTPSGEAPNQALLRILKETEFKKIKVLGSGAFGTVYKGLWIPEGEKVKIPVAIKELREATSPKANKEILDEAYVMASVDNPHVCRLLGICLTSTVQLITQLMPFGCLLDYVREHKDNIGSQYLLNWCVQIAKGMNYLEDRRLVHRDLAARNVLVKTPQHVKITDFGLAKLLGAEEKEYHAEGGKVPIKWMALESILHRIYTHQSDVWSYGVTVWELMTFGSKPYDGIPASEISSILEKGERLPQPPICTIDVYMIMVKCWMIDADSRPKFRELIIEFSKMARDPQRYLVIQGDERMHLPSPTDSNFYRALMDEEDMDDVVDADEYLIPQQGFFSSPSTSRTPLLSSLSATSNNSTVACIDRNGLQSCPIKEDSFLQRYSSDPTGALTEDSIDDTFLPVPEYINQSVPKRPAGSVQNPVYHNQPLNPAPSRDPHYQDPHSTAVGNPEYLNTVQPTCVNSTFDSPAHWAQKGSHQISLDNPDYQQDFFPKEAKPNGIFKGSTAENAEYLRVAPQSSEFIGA

`CCc1c(F)cccc1Nc1c(-c2ccnc(N)n2)[nH]c2c1C(=O)NCC2` [compound 195]: the IC50 at EGFR WT (Ba/F3 cells) was 100 to 1000 nM; in assay [1], 100 to 1000 nM; in assay [2] it was 100 to 1000 nM; in assay [3] it was 100 to 1000 nM; in assay [4], 100 to 1000 nM; in assay [5], less than 100 nM. Also, in assay [6], the IC50 was less than 100 nM.

As to `Cc1c(F)cccc1Nc1c(-c2ccnc(N)n2)[nH]c2c1C(=O)NCC2` [compound 282], the IC50 on EGFR WT (Ba/F3 cells) is 100 to 1000 nM; in assay [1] it was 100 to 1000 nM; in assay [5], less than 100 nM; in assay [6] it was less than 100 nM.

On to `COc1c(Cl)cccc1Nc1c(-c2ccnc3ccc(OCC4CC(F)(F)C4)nc23)[nH]c2c1C(=O)NCC2` [compound 757, 3-[(3-chloro-2-methoxyphenyl)amino]-2-[6-[(3,3-difluorocyclobutyl)methoxy]-1,5-naphthyridin-4-yl]-1H,5H,6H,7H-pyrrolo[3,2-c]pyridin-4-one], for which the IC50 on EGFR WT (Ba/F3 cells) was 100 to 1000 nM; in assay [1], 100 to 1000 nM; in assay [2] it was less than 100 nM; in assay [3] it was less than 100 nM; in assay [4], less than 100 nM; in assay [5] it was less than 100 nM.

Take `Nc1nccc(-c2[nH]c3c(c2Nc2ccccc2)C(=O)NCC3)n1` [compound 283]: the IC50 is 100 to 1000 nM at EGFR WT (Ba/F3 cells); 100 to 1000 nM in assay [1]; less than 100 nM in assay [4]; less than 100 nM in assay [5]; 100 to 1000 nM in assay [6].

`COc1c(Cl)cccc1Nc1c(-c2ccnc3cnc(OC4COC4)nc23)[nH]c2c1C(=O)NCC2` [compound 441]: the IC50 on EGFR WT (Ba/F3 cells) was 100 to 1000 nM; in assay [1] it was less than 100 nM; in assay [2], less than 100 nM; in assay [3] it was less than 100 nM; in assay [4], less than 100 nM; in assay [5], less than 100 nM.

Regarding `COc1c(Cl)cccc1Nc1c(-c2ccnc(C)n2)[nH]c2c1C(=O)NCC2` [compound 206], the IC50 on EGFR WT (Ba/F3 cells) is 100 to 1000 nM; in assay [1], 100 to 1000 nM; in assay [5], less than 100 nM; in assay [6], 100 to 1000 nM.

Turning to `COc1c(Cl)cccc1Nc1c(-c2ccnc(Nc3cn(C)nn3)n2)[nH]c2c1C(=O)NCC2` [compound 511, 3-[(3-chloro-2-methoxyphenyl)amino]-2-{2-[(1-methyl-1,2,3-triazol-4-yl)amino]pyrimidin-4-yl}-1H,5H,6H,7H-pyrrolo[3,2-c]pyridin-4-one], the IC50 at EGFR WT (Ba/F3 cells) was 100 to 1000 nM; in assay [1] it was less than 100 nM; in assay [2], less than 100 nM; in assay [3] it was less than 100 nM; in assay [4], less than 100 nM; in assay [5] it was less than 100 nM.

Take `CNc1nccc(-c2[nH]c3c(c2Nc2cccc(F)c2C)C(=O)NCC3)n1` [Compound 690, 3-[(3-fluoro-2-methylphenyl)amino]-2-[2-(methylamino)pyrimidin-4-yl]-1H,5H,6H,7H-pyrrolo[3,2-c]pyridin-4-one]: the IC50 was less than 100 nM at EGFR WT (Ba/F3 cells), 100 to 1000 nM in assay [1], less than 100 nM in assay [5] and less than 100 nM in assay [6].

`COc1cc2nccc(-c3[nH]c4c(c3Nc3cccc(Cl)c3OC)C(=O)NCC4)c2nc1OC` [compound 730, 3-[(3-chloro-2-methoxyphenyl)amino]-2-(6,7-dimethoxy-1,5-naphthyridin-4-yl)-1H,5H,6H,7H-pyrrolo[3,2-c]pyridin-4-one]: the 50% inhibitory concentration (IC50) (on EGFR WT (Ba/F3 cells); in assay [1]; in assay [2]; in assay [3]; in assay [4]; in assay [5]) was less than 100 nM each time.

For the compound `COc1ccc2nccc(-c3[nH]c4c(c3Nc3cccc(F)c3OC)C(=O)NCC43CCNCC3)c2n1` [compound 685], the half-maximal inhibitory concentration (IC50) at EGFR WT (Ba/F3 cells) is 100 to 1000 nM; in assay [1] it was 100 to 1000 nM; in assay [5] it was less than 100 nM; in assay [6], less than 100 nM.

Regarding `COc1ccc2nccc(-c3[nH]c4c(c3Nc3cccc(F)c3OC)C(=O)NCC4)c2n1` [Compound 681, 3-[(3-fluoro-2-methoxyphenyl)amino]-2-(6-methoxy-1,5-naphthyridin-4-yl)-1H,5H,6H,7H-pyrrolo[3,2-c]pyridin-4-one], the IC50 (at EGFR WT (Ba/F3 cells); in assay [1]; in assay [2]; in assay [3]; in assay [4]; in assay [5]) was less than 100 nM each time.

On to `COc1ccc2nccc(-c3[nH]c4c(c3Nc3cccc(F)c3C)C(=O)NCC4)c2n1` [Compound 684, 3-[(3-fluoro-2-methylphenyl)amino]-2-(6-methoxy-1,5-naphthyridin-4-yl)-1H,5H,6H,7H-pyrrolo[3,2-c]pyridin-4-one], for which the IC50 is 100 to 1000 nM on EGFR WT (Ba/F3 cells); less than 100 nM in assay [1]; less than 100 nM in assay [2]; less than 100 nM in assay [3]; less than 100 nM in assay [4]; less than 100 nM in assay [5].

Take `CNc1ccc2nccc(-c3[nH]c4c(c3Nc3cccc(Cl)c3OC)C(=O)NCC4)c2n1` [Compound 152, 3-((3-chloro-2-methoxyphenyl)amino)-2-(6-(methylamino)-1,5-naphthyridin-4-yl)-1,5,6,7-tetrahydro-4H-pyrrolo[3,2-c]pyridin-4-one]: the IC50 (on EGFR WT (Ba/F3 cells); in assay [1]; in assay [5]; in assay [6]) was less than 100 nM throughout.

As to `Nc1nccc(-c2[nH]c3c(c2Nc2cccc(F)c2OC(F)F)C(=O)NCC3)n1` [compound 299], the concentration for half-maximal inhibition (IC50) on EGFR WT (Ba/F3 cells) was more than 1000 nM; in assay [1] it was 100 to 1000 nM; in assay [2], 100 to 1000 nM; in assay [3], 100 to 1000 nM; in assay [4] it was 100 to 1000 nM; in assay [5] it was less than 100 nM.

Consider `COc1c(F)cccc1Nc1c(-c2ccnc3cccnc23)[nH]c2c1C(=O)NCC2` [compound 442], for which the IC50 at EGFR WT (Ba/F3 cells) is 100 to 1000 nM; in assay [1] it was less than 100 nM; in assay [2], less than 100 nM; in assay [3] it was less than 100 nM; in assay [4], less than 100 nM; in assay [5] it was less than 100 nM.

For the compound `COc1c(F)cccc1Nc1c(-c2ncnc3cccnc23)[nH]c2c1C(=O)NCC2` [Compound 154, 3-((3-fluoro-2-methoxyphenyl)amino)-2-(pyrido[3,2-d]pyrimidin-4-yl)-1,5,6,7-tetrahydro-4H-pyrrolo[3,2-c]pyridin-4-one], the IC50 at EGFR WT (Ba/F3 cells) was less than 100 nM; in assay [1], more than 1000 nM; in assay [5], 100 to 1000 nM; in assay [6], more than 1000 nM.
